Reference: article PMC7334220, “Diamond Blackfan anemia is mediated by hyperactive Nemo-like kinase” (Nature Communications, 2020)

What was measured:
[1] = tested on: ribosome-competent cord blood CD34+ HSPCs (shLuc); assay: In vitro differentiation of cord blood CD34+ HSPCs transduced with control shRNA (luciferase); type: cell-based, human
Procedure: Lin-Kit^+ fetal liver cells were obtained from mouse embryos expressing tet-on shRNA against RPS19, at day E14.5-15.5. Cells were plated at 2000 cell per well in 96-well plates in the presence or absence of doxycycline. Relative amounts of live cells were quantified by luciferase-based Cell titer-Glo® assay. b TGFβR1 inhibitors were assessed for their ability to increase cell expansion in RPS19-insuffiency. As a control, vehicle alone (no doxycycline) is represented at the far left while all other samples were treated with doxycycline to induce RPS19-insufficiency. c Kit^+ erythroid progenitors were grown in the absence of doxycycline and in the presence of 10 µM of indicated compound. In addition, cells were treated with 5 ng/ml of TGFβ1 for 5 days before being subjected to Cell titer-Glo® assay. d Differentiating cord blood CD34^+ progenitors were transduced with shRNA against luciferase or RPS19 and treated with inhibitors at working concentrations for TGFβ inhibition every three days. […] Cells were counted and CD235^+ erythroid (i and iii) and CD11b^+ myeloid cell (ii and iv) percentages were determined by flow cytometry. The number of erythroid or myeloid cells is expressed as a percentage of the number of that lineage with no cytokine or drug treatment. […]
Fig. 8 NLK inhibition increases expansion of erythroid progenitors from human and murine models of DBA. a Human cord blood CD34^+ progenitors were transduced with lentivirus co-expressing GFP with shRNA against luciferase (shLuc), RPS19 (shRPS19), or RPL11 (shRPL11). […] Cells were counted and assessed for cell surface expression of CD235. b Lin-Kit^+ hematopoietic progenitors were obtained from three mouse embryos expressing tetracycline-inducible shRNA against RPS19 at day E14.5 or three untreated mice, and thee mature RPL11^+/+ or three mature RPL11^+/lox mice treated with tamoxifen for eight weeks. […] Values were expressed as a percentage relative to untreated controls. c, d Intracellular phosphorylation of NLK at Thr298 was determined by capillary electrophoresis using the Peggy Sue™ Automated Western blotting platform. […]

DBA patient HSPCs = assay: Erythroid differentiation (CD235+) of CD34+ HSPCs from DBA patient bone marrow; type: cell-based, human; settings: 5 µM SD208; three DBA patients
Procedure: Cells were counted and assessed for cell surface expression of CD235. b Lin-Kit^+ hematopoietic progenitors were obtained from three mouse embryos expressing tetracycline-inducible shRNA against RPS19 at day E14.5 or three untreated mice, and thee mature RPL11^+/+ or three mature RPL11^+/lox mice treated with tamoxifen for eight weeks. […] Values were expressed as a percentage relative to untreated controls. c, d Intracellular phosphorylation of NLK at Thr298 was determined by capillary electrophoresis using the Peggy Sue™ Automated Western blotting platform. After lysis, 4 µg of protein from the CD235^+ population was probed against pThr298-NLK and normalized to GAPDH. […] After counting the total cell population, the ratio of CD235^+ erythroblasts was determined by flow cytometry and number of CD235^+ erythroblasts calculated. This was expressed as a percentage of the average number of erythroid cells present in untreated healthy controls. f NLK phosphorylation was assessed by capillary electrophoresis as above. Bars represent means ± SD with individual data points overlaid. […] Statistics: two-tailed Student’s t test, significant *p < 0.05. Also see Supplementary Fig. 8. Source data are provided as a Source Data file. […]

[2] = authors' statement in rebuttal, no data or reference; cited from earlier work

With `Fc1ccc(Cl)cc1-c1nc(Nc2ccncc2)c2nccnc2n1` [SD208] the activity at 5 µM ([1]; Homo sapiens, 360 h, read-out: erythroid expansion of HSPCs transduced with control shRNA, % of control) was about 105%, the “restoration of erythroid and myeloid expansion of TGFβ-treated cells” value ([1]; ribosome-competent cells, 5 ng/ml TGFβ1, 5 µM compound, 15 days, Fig. 1e) was “restored” and the “mean increase of CD235+ erythroblast differentiation with SD208” value (DBA patient HSPCs) was 2.11 fold. For the same compound, the solubility [2] was “poor”.
